From patent US20200190073A1, “SUBSTITUTED SUCCINIMIDE DERIVATIVES AS PESTICIDES” (BASF SE, priority 2017, published 2020)

Tests used:
Format in all cases: in vivo
[1] = test system: Rice Green Leafhopper (Nephotettix virescens); experiment: B.8 Rice green leafhopper, sprayed rice seedlings; conditions: 72 h, read-out: mortality in comparison with untreated controls
Description: B.8 Rice Green Leafhopper (Nephotettix virescens)
(§1) Rice seedlings were cleaned and washed 24 hours before spraying. The active compounds were formulated in 1:1 acetone:water (vol:vol), and 0.01% vol/vol surfactant (Kinetic HV) was added. Potted rice seedlings were sprayed with 5-6 ml test solution, air dried, covered with Mylar cages and inoculated with 10 adults. Treated rice plants were kept at about 28-29° C. and relative humidity of about 50-60%. Percent mortality was recorded after 72 hours.

[2] = test system: Orchid Thrips (Dichromothrips Corbetti); experiment: B.7 Orchid thrips, floral immersion; conditions: Thrips, 72 h, read-out: mortality in comparison with untreated controls
Description: B.7 Orchid Thrips (Dichromothrips Corbetti)
Dichromothrips corbetti adults used for bioassay were obtained from a colony maintained continuously under laboratory conditions. For testing purposes, the test compound is diluted in a 1:1 mixture of acetone:water (vol:vol), plus Kinetic HV at a rate of 0.01% v/v.
Thrips potency of each compound was evaluated by using a floral-immersion technique. All petals of individual, intact orchid flowers were dipped into treatment solution and allowed to dry in Petri dishes. Treated petals were placed into individual re-sealable plastic along with about 20 adult thrips. All test arenas were held under continuous light and a temperature of about 28° C. for duration of the assay. After 3 days, the numbers of live thrips were counted on each petal. The percent mortality was recorded 72 hours after treatment.

[3] = test system: Tobacco Budworm (Heliothis virescens); experiment: B.4 Tobacco budworm, insect diet with eggs; conditions: 120 h, read-out: mortality in comparison with untreated controls
Description: B.4 Tobacco Budworm (Heliothis virescens)
For evaluating control of tobacco budworm (Heliothis virescens) the test unit consisted of 96-well-microtiter plates containing an insect diet and 15-25 H. virescens eggs.
The compounds were formulated using a solution containing 75% v/v water and 25% v/v DMSO. Different concentrations of formulated compounds were sprayed onto the insect diet at 10 μl, using a custom built micro atomizer, at two replications.
After application, microtiter plates were incubated at about 28±1° C. and about 80±5% relative humidity for 5 days. Egg and larval mortality was then visually assessed.

[4] = test system: Boll Weevil (Anthonomus grandis); experiment: B.5 Boll weevil, insect diet with eggs; conditions: 120 h, read-out: mortality in comparison with untreated controls
Description: B.5 Boll Weevil (Anthonomus grandis)
For evaluating control of boll weevil (Anthonomus grandis) the test unit consisted of 96-well-microtiter plates containing an insect diet and 5-10 A. grandis eggs.
The compounds were formulated using a solution containing 75% v/v water and 25% v/v DMSO. Different concentrations of formulated compounds were sprayed onto the insect diet at 5 μl, using a custom built micro atomizer, at two replications.
After application, microtiter plates were incubated at about 25±1° C. and about 75±5% relative humidity for 5 days. Egg and larval mortality was then visually assessed.

[5] = test system: Red Spider Mite (Tetranychus kanzawai); experiment: B.9 Red spider mite, sprayed cowpea beans; conditions: 72 h, read-out: mortality in comparison with untreated controls
Description: B.9 Red Spider Mite (Tetranychus kanzawai)
The active compound was dissolved at the desired concentration in a mixture of 1:1 (vol:vol) distilled water:acetone. Add surfactant (Kinetic HV) was added at a rate of 0.01% (vol/vol).The test solution was prepared at the day of use.
Potted cowpea beans of 4-5 days of age were cleaned with tap water and sprayed with 1-2 ml of the test solution using air driven hand atomizer. The treated plants were allowed to air dry and afterwards inoculated with 30 or more mites by clipping a cassava leaf section from rearing population. Treated plants were placed inside a holding room at about 25-27° C. and about 50-60% relative humidity. Percent mortality was assessed 72 hours after treatment.

[6] = test system: Vetch Aphid (Megoura viciae); experiment: B.3 Vetch aphid, broad bean leaf disks; conditions: foliar, 120 h, read-out: mortality in comparison with untreated controls
Description: B.3 Vetch Aphid (Megoura viciae)
For evaluating control of vetch aphid (Megoura viciae) through contact or systemic means the test unit consisted of 24-well-microtiter plates containing broad bean leaf disks.
The compounds were formulated using a solution containing 75% v/v water and 25% v/v DMSO. Different concentrations of formulated compounds were sprayed onto the leaf disks at 2.5 μl, using a custom built micro atomizer, at two replications.
After application, the leaf disks were air-dried and 5-8 adult aphids placed on the leaf disks inside the microtiter plate wells. The aphids were then allowed to suck on the treated leaf disks and incubated at about 23±1° C. and about 50±5% relative humidity for 5 days. Aphid mortality and fecundity was then visually assessed.

[7] = test system: Green Soldier Stink Bug (Nezara viridula); experiment: B.11 Green soldier stink bug, sprayed soybean pods; conditions: 120 h, read-out: mortality in comparison with untreated controls
Description: B.11 Green Soldier Stink Bug (Nezara viridula)
The active compound was dissolved at the desired concentration in a mixture of 1:1 (vol:vol) distilled water:acetone. Surfactant (Kinetic HV) was added at a rate of 0.01% (vol/vol). The test solution was prepared at the day of use. Soybean pods were placed in glass Petri dishes lined with moist filter paper and inoculated with ten late 3rd instar N. viridula. Using a hand atomizer, approximately 2 ml solution is sprayed into each Petri dish. Assay arenas were kept at about 25° C. Percent mortality was recorded after 5 days.

[8] = test system: Neotropical Brown Stink Bug (Euschistus heros); experiment: B.12 Neotropical brown stink bug, dipped pole bean; conditions: 120 h, read-out: mortality in comparison with untreated controls
Description: B.12 Neotropical Brown Stink Bug (Euschistus heros)
For evaluating control of Euschistus heros through contact the test unit consisted of 100 ml disposable plastic beakers with transparent lids.
The compounds were formulated using a solution containing 50% water and 50% acetone. 50 ml of different concentrations of formulated compounds or mixtures were prepared in a glass petri dish and used for dipping three 6 cm sections of fresh pole bean. Each treatment was replicated eight times.
After application, the pole bean sections were air-dried and 5 adult E. heros placed in each beaker. The E. heros were then allowed to suck on the treated pole bean sections and incubated at 23±1° C., 50±5% RH for 5 days. E. heros mortality was then visually assessed.

[9] = test system: Diamond back moth (Plutella xylostella); experiment: B.1 Diamond back moth, cabbage leaf dip; conditions: foliar, 72 h, read-out: mortality in comparison with untreated controls
Description: B.1 Diamond back moth (Plutella xylostella)
The active compound was dissolved at the desired concentration in a mixture of 1:1 (vol:vol) distilled water:acetone. Surfactant (Kinetic HV) was added at a rate of 0.01% (vol/vol). The test solution was prepared at the day of use.
Leaves of cabbage were dipped in test solution and air-dried. Treated leaves were placed in petri dishes lined with moist filter paper and inoculated with ten 3rd instar larvae. Mortality was recorded 72 hours after treatment. Feeding damages were also recorded using a scale of 0-100%.

[10] = test system: Green Peach Aphid (Myzus persicae); experiment: B.2 Green peach aphid, artificial diet, systemic; conditions: 72 h, read-out: mortality in comparison with untreated controls
Source text: B.2 Green Peach Aphid (Myzus persicae)
For evaluating control of green peach aphid (Myzus persicae) through systemic means the test unit consisted of 96-well-microtiter plates containing liquid artificial diet under an artificial mem brane.
The compounds were formulated using a solution containing 75% v/v water and 25% v/v DMSO. Different concentrations of formulated compounds were pipetted into the aphid diet, using a custom built pipetter, at two replications.
After application, 5-8 adult aphids were placed on the artificial membrane inside the microtiter plate wells. The aphids were then allowed to suck on the treated aphid diet and incubated at about 23±1° C. and about 50±5% relative humidity for 3 days. Aphid mortality and fecundity was then visually assessed.

[11] = test system: Orchid Thrips (Dichromothrips Corbetti); experiment: CE.3 Orchid thrips, comparative test; conditions: 96 h, read-out: % mortality in comparison to untreated controls
Description: (§2) The tables show % mortality in comparison to untreated controls.
CE.3 Orchid Thrips (Dichromothrips Corbetti)
Dichromothrips corbetti adults used for bioassay were obtained from a colony maintained continuously under laboratory conditions. For testing purposes, the test compound was diluted to a concentration of 300 ppm (wt compound: vol diluent) in a 1:1 mixture of acetone:water (vol:vol), plus 0.01% vol/vol Kinetic® surfactant.
Thrips potency of each compound was evaluated by using a floral-immersion technique. Plastic petri dishes were used as test arenas. All petals of individual, intact orchid flowers were dipped into treatment solution and allowed to dry. Treated flowers were placed into individual petri dishes along with 10-15 adult thrips. The petri dishes were then covered with lids. All test arenas were held under continuous light and a temperature of about 280C for duration of the assay. After 4 days, the numbers of live thrips were counted on each flower, and along inner walls of each petri dish. The level of thrips mortality was extrapolated from pre-treatment thrips numbers.

[12] = test system: Rice Green Leafhopper (Nephotettix virescens); experiment: CE.5 Rice green leafhopper, comparative test; conditions: 72 h, read-out: % mortality in comparison to untreated controls
Description: as §2
CE.5 Rice Green Leafhopper (Nephotettix virescens)
as §1, with “50:50” for “1:1”, “0.1%” for “0.01%”, “(EL 620)” for “(Kinetic HV)”, “5” for “5-6”, “placed in” for “covered with Mylar”

## O=C(N[C@@H]1CC(=O)N(C2CC2)C1=O)c1ccc(C2=NO[C@@](c3cc(Cl)c(F)c(Cl)c3)(C(F)(F)F)C2)cc1Cl [Compound I-1-25, 2-Chloro-N-[(3R)-1-cyclopropyl-2,5-dioxo-pyrrolidin-3-yl]-4-[(5S)-5-(3,5-dichloro-4-fluoro-phenyl)-5-(trifluoromethyl)-4H-isoxazol-3-yl]benzamide]
[1]
  mortality at 300 ppm: > 75%
[2]
  mortality at 300 ppm: > 75%
[3]
  mortality at 2500 ppm: > 75%
[4]
  mortality at 2500 ppm: > 75%
[5]
  mortality at 300 ppm: > 75%
[6]
  mortality at 2500 ppm: > 75%
[7]
  mortality at 300 ppm: > 75%
[8]
  mortality at 500 ppm: > 75%
[9]
  mortality at 300 ppm: > 75%
[10]
  mortality at 2500 ppm: > 75%

## O=C(N[C@@H]1CC(=O)N(O)C1=O)c1ccc(C2=NOC(c3cc(Cl)c(F)c(Cl)c3)(C(F)(F)F)C2)cc1Cl (stereo partly drawn) [Compound I-1-33, 2-Chloro-4-[5-(3,5-dichloro-4-fluoro-phenyl)-5-(trifluoromethyl)-4H-isoxazol-3-yl]-N-[(3R)-1-hydroxy-2,5-dioxo-pyrrolidin-3-yl]benzamide]
[2]
  mortality at 300 ppm: > 75%
[3]
  mortality at 2500 ppm: > 75%
[4]
  mortality at 2500 ppm: > 75%
[9]
  mortality at 300 ppm: > 75%
[10]
  mortality at 2500 ppm: > 75%

## CNN1C(=O)C[C@@H](NC(=O)c2ccc(C3=NOC(c4cc(Cl)cc(Cl)c4)(C(F)(F)F)C3)cc2C)C1=O (stereo partly drawn) [Compound I-1-45, 4-[5-(3,5-Dichlorophenyl)-5-(trifluoromethyl)-4H-isoxazol-3-yl]-2-methyl-N-[(3R)-1-(methylamino)-2,5-dioxo-pyrrolidin-3-yl]benzamide]
[2]
  mortality at 300 ppm: > 75%
[3]
  mortality at 2500 ppm: > 75%
[4]
  mortality at 2500 ppm: > 75%
[5]
  mortality at 300 ppm: > 75%
[6]
  mortality at 2500 ppm: > 75%
[7]
  mortality at 300 ppm: > 75%
[9]
  mortality at 300 ppm: > 75%
[10]
  mortality at 2500 ppm: > 75%

## CCN1C(=O)C[C@@H](NC(=O)c2ccc(C3=NOC(c4cc(Cl)c(F)c(Cl)c4)(C(F)(F)F)C3)cc2C)C1=O (stereo partly drawn) [Compound I-1-50]
[11]
  mortality at 10 ppm: 100%
[1]
  mortality at 300 ppm: > 75%
[2]
  mortality at 300 ppm: > 75%
[3]
  mortality at 2500 ppm: > 75%
[4]
  mortality at 2500 ppm: > 75%
[5]
  mortality at 300 ppm: > 75%
[6]
  mortality at 2500 ppm: > 75%
[7]
  mortality at 300 ppm: > 75%
[9]
  mortality at 300 ppm: > 75%
[10]
  mortality at 2500 ppm: > 75%

## CCN1C(=O)C[C@@H](NC(=O)c2ccc(C3=NOC(c4cc(Cl)cc(Cl)c4)(C(F)(F)F)C3)cc2C)C1=O (stereo partly drawn) [Compound I-1-51]
[12]
  mortality at 3 ppm: 90%
[11]
  mortality at 10 ppm: 100%
[1]
  mortality at 300 ppm: > 75%
[2]
  mortality at 300 ppm: > 75%
[3]
  mortality at 2500 ppm: > 75%
[4]
  mortality at 2500 ppm: > 75%
[5]
  mortality at 300 ppm: > 75%
[6]
  mortality at 2500 ppm: > 75%
[7]
  mortality at 300 ppm: > 75%
[9]
  mortality at 300 ppm: > 75%
[10]
  mortality at 2500 ppm: > 75%

## CON1C(=O)C[C@@H](NC(=O)c2ccc(C3=NOC(c4cc(Cl)cc(Cl)c4)(C(F)(F)F)C3)cc2C)C1=O (stereo partly drawn) [Compound I-1-55, 4-[5-(3,5-Dichlorophenyl)-5-(trifluoromethyl)-4H-isoxazol-3-yl]-N-[(3R)-1-methoxy-2,5-dioxo-pyrrolidin-3-yl]-2-methyl-benzamide]
[1]
  mortality at 300 ppm: > 75%
[2]
  mortality at 300 ppm: > 75%
[3]
  mortality at 2500 ppm: > 75%
[4]
  mortality at 2500 ppm: > 75%
[5]
  mortality at 300 ppm: > 75%
[6]
  mortality at 2500 ppm: > 75%
[7]
  mortality at 300 ppm: > 75%
[9]
  mortality at 300 ppm: > 75%
[10]
  mortality at 2500 ppm: > 75%

## Cc1cc(C2=NOC(c3cc(Cl)c(F)c(Cl)c3)(C(F)(F)F)C2)ccc1C(=O)N[C@@H]1CC(=O)N(CC(F)(F)F)C1=O (stereo partly drawn) [Compound I-1-57]
[11]
  mortality at 10 ppm: 100%
[1]
  mortality at 300 ppm: > 75%
[2]
  mortality at 300 ppm: > 75%
[3]
  mortality at 2500 ppm: > 75%
[4]
  mortality at 2500 ppm: > 75%
[5]
  mortality at 300 ppm: > 75%
[6]
  mortality at 2500 ppm: > 75%
[9]
  mortality at 300 ppm: > 75%
[10]
  mortality at 2500 ppm: > 75%

## O=C(N[C@@H]1CC(=O)N(CC(F)(F)F)C1=O)c1ccc(C2=NOC(c3cc(Cl)c(F)c(Cl)c3)(C(F)(F)F)C2)cc1Cl (stereo partly drawn) [Compound I-1-59]
[11]
  mortality at 10 ppm: 100%
[1]
  mortality at 300 ppm: > 75%
[2]
  mortality at 300 ppm: > 75%
[3]
  mortality at 2500 ppm: > 75%
[4]
  mortality at 2500 ppm: > 75%
[5]
  mortality at 300 ppm: > 75%
[6]
  mortality at 2500 ppm: > 75%
[7]
  mortality at 300 ppm: > 75%
[9]
  mortality at 300 ppm: > 75%
[10]
  mortality at 2500 ppm: > 75%
